Experiments:
plasmin = plasmin (Homo sapiens, UniProt P00747); format: biochemical
α-chymotrypsin = format: biochemical, human
Factor Xa = Factor Xa (Homo sapiens, UniProt P00742); format: biochemical
thrombin = thrombin (Homo sapiens, UniProt P00734); format: biochemical
trypsin = trypsin (Homo sapiens, UniProt P07477); format: biochemical

Chain of plasmin (P00747 581-810 limits assumed): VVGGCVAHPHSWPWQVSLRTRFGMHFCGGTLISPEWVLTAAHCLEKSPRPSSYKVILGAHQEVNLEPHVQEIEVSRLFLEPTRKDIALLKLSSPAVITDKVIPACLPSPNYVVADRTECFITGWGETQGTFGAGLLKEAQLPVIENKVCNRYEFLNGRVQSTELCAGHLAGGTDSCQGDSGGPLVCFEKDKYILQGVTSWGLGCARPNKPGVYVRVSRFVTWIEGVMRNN
Chain of plasmin (P00747 97-580 partner limits assumed): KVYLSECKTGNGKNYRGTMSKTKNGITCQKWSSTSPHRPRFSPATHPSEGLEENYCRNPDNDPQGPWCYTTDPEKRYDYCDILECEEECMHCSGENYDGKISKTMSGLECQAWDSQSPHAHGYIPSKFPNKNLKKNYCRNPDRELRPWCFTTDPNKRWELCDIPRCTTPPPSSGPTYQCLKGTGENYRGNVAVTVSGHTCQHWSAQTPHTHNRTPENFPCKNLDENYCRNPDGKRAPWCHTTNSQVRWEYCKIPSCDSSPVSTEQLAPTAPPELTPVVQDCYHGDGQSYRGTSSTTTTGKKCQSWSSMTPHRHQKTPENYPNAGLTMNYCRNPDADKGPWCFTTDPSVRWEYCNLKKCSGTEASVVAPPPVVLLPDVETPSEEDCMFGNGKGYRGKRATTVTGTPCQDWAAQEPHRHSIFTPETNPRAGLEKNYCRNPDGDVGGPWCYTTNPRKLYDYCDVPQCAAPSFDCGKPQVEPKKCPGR
Chain of Factor Xa (P00742 235-488 limits assumed): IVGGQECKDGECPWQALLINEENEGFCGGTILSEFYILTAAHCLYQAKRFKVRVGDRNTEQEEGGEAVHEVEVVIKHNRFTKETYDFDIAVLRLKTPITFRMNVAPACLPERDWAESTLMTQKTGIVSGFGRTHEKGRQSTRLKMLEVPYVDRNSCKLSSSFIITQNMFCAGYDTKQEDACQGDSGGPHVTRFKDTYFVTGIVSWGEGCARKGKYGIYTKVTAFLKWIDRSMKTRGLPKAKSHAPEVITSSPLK
Chain of Factor Xa (P00742 41-179 partner limits assumed): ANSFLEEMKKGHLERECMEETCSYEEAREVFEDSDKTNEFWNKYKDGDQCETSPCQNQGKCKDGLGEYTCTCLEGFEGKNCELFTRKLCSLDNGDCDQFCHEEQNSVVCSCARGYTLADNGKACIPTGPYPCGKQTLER

CC(C)C[C@H](NC(=O)OC1CCN(C(=O)OC(C)(C)C)CC1)C(=O)N[C@@H](C[C@@H]1CCNC1=O)C(O)S(=O)(=O)[O-].[Na+] (some centres unmarked) [GC868]
No or minimal inhibition: inhibition of plasmin (plasmin) | inhibition of α-chymotrypsin (α-chymotrypsin) | inhibition of Factor Xa (Factor Xa) | inhibition of thrombin (thrombin) | inhibition of trypsin (trypsin)

Source: patent US11013779B2, “Small molecule therapeutic inhibitors against picornaviruses, caliciviruses, and coronaviruses” (Kansas State University Research Foundation, priority 2016, dated 2021)
